Source: patent publication US20260014171A1, “COMPOSITION FOR THE USE IN THE TREATMENT OF POLYCYSTIC OVARY SYNDROME” (LO.LI. PHARMA S.R.L., priority 2023, published 2026)

Experiments:
Format in all cases: cell-based
IGF-1 [1] = assay: IGF-1 gene expression by Real Time PCR in co-cultured bovine theca and granulosa cells; conditions: Phase 1: FSH (46 h), LH 1.5 UI/ml + insulin 100 ng/ml 10 min, then exogenous IGF-1 100 ng/ml 48 h; vs untreated control
Experimental: (§1) The anti-proliferative activity of Dioscorea villosa, Vitamin D, and α-lactalbumin was investigated (alone or in combination) in cultured bovine theca and granulosa cells (co-culture). To investigate the properties of these natural molecules, the inventors evaluated their effect on cell viability, proliferation, and apoptosis.
(§2) Bovine theca and granulosa were co-cultured, (DMEM, High glucose 5% FBS, […], 1% Pen/Strep, 1% Amphotericin B, 1% Glutamine) for 7 days. The cells were grown in petri dishes and treated shortly before reaching 80% confluence. […]
(§3) The expression of insuline like growth factor IGF-1 and IGF-BP1 insulin like growth factor binding protein 1 were both measured by Real Time PCR and western blot, to investigate the effects of the treatment with the raw materials; namely, Dioscorea villosa, Vitamin D and α-lactalbumin alone or in combination.
(§4) The results were measured as 2^−ΔΔCt for the mRNA assay. Both for the Real Time PCR and western blot analyses, the data are expressed as fold increases in relation to the housekeeping genes. Proliferation (ki67 western blot assay) and apoptosis (caspase-9 western blot assay) assessed the expression as per the experimental conditions reported above.
(§5) Co-cultured bovine theca and granulosa cells; grown as described in phase 1. The expression of IGF-1 and IGF-BP1 were analyzed after treatment with Dioscorea villosa. […]

IGFBP-1 [2] = assay: IGFBP-1 gene expression by Real Time PCR in co-cultured bovine theca and granulosa cells; conditions: Phase 1: FSH (46 h), LH + insulin, then exogenous IGF-1 100 ng/ml 48 h; vs untreated control
Experimental: as §1, §2, §3, §4, §5

ki-67 [3] = assay: Proliferation (ki67 western blot assay) in co-cultured bovine theca and granulosa cells
Experimental: as §1, §2, §4, §5
(§6) The results were measured as […] for the mRNA assay. Both for the Real Time PCR and western blot analyses, the data are expressed as fold increases in relation to the housekeeping genes. […]
(§7) The results were measured as […] for the mRNA assay. […]

ki-67 [4] = assay: ki-67 gene expression (mRNA) in co-cultured bovine theca and granulosa cells; conditions: Phase 1: FSH (46 h), LH + insulin, then exogenous IGF-1 100 ng/ml 48 h; vs untreated control
Experimental: as §1, §2, §4, §5, §6, §7

caspase-9 [5] = assay: Apoptosis (caspase-9 western blot assay) in co-cultured bovine theca and granulosa cells
Experimental: as §1, §2, §4, §5, §6, §7

IGFBP-1 [6] = assay: IGFBP-1 protein quantification by western blot in co-cultured bovine theca and granulosa cells; conditions: Phase 1: FSH (46 h), LH + insulin, then exogenous IGF-1 100 ng/ml 48 h; vs untreated control
Experimental: as §1, §2, §3, §4, §5

caspase-9 [7] = assay: caspase-9 gene expression (mRNA) in co-cultured bovine theca and granulosa cells; conditions: Phase 1: FSH (46 h), LH + insulin, then exogenous IGF-1 100 ng/ml 48 h; vs untreated control
Experimental: as §1, §2, §4, §5, §6, §7

IGF-1 [8] = assay: IGF-1 protein quantification by western blot in co-cultured bovine theca and granulosa cells; conditions: Phase 1: FSH (46 h), LH + insulin, then exogenous IGF-1 100 ng/ml 48 h; vs untreated control
Experimental: as §1, §2, §3, §4, §5

[9] = Phase 1: FSH (46 h), LH + insulin, then exogenous IGF-1 100 ng/ml 48 h, vs untreated control
[10] = Results text: treatment with IGF-1 (48 h)

Q: How did the “gene expression of IGF-1 (mRNA)” value (IGF-1 [1]) turn out when “IGF-1: exogenous insulin like growth factor IGF-1, 100 ng/ml for 48 h, used as proliferative stimulus” was run?
A: Its value is “significant increase”.

Q: And the “gene expression of IGFBP-1 (mRNA)” value (IGFBP-1 [2])?
A: Its value is “not significant”.

Q: And the “quantification of ki-67 protein” value (ki-67 [3]; [9])?
A: The value was “significant increase”.

Q: And the proliferative effect (ki-67 [3]; [10])?
A: The proliferative effect was “strong proliferative effect”.

Q: What about the “gene expression of ki-67 (mRNA)” value (ki-67 [4]) of the same substance?
A: Its value is “significant increase”.

Q: What about the “quantification of caspase-9 protein” value (caspase-9 [5]; [9]) of the same substance?
A: Its value is “not significant”.

Q: What about the “rate of apoptosis observed in the cell culture” value (caspase-9 [5]; [10]) of the same substance?
A: The value was “reduction in the rate of apoptosis”.

Q: What about the “quantification of IGFBP-1 protein” value (IGFBP-1 [6]) of the same substance?
A: The value was “not significant”.

Q: What about the “gene expression of caspase-9 (mRNA)” value (caspase-9 [7]) of the same substance?
A: The value was “not significant”.

Q: And the “quantification of IGF-1 protein” value (IGF-1 [8])?
A: The value was “significant increase”.
